The nature of data set [1]: Stability in solution for preparing a freeze-dried preparation (HPLC). Conditions: for Residual Rate: 1 mg/ml in water with 50 mg lactose and 0.5 mg citric acid per ml, 25°C. It counts as physicochemical. On the procedure:
In 1 ml of distilled water was dissolved 50 mg of lactose and 0.5 mg of citric acid. Compound (I) or Compound (III) was dissolved in the solution to a concentration of 1 mg/ml. The test solution was poured in a vial, and kept in a thermostat at 25°C. The concentration of Compound (I) or Compound (III) in the solution was determined by High Performance Liquid Chromatography (HPLC) with the elapse of time. The concentration of each test compound in the test solution just after the dissolution was defined as 100 %. The residual rate (%) was calculated according to the following equation. [formula]

Data set [2] has as its system Sarcoma 180 tumor. In words: Therapeutic effect against Sarcoma 180 tumor implanted subcutaneously in mice. It counts as in vivo, ddY-strain mice. Conditions: Dose 0.70 mg/kg, intravenously, one day after implantation; tumor volume seven days after implantation. On the procedure: Five male ddY-strain mice each weighing 18 to 20 g were used for each group as test animals, and 5 × 10⁵ Sarcoma 180 tumor cells were implanted subcutaneously into the animals at the axilla. One day after the implantation, 0.2 ml of physiological saline containing a test compound at the concentration indicated in Table 1 was intravenously administered to each mouse. T/C [T: average tumor volume (mm³) of the group treated with the test compound, C: that of the control group which received an intravenous administration of 0.2 ml of physiological saline] was determined seven days after the implantation.

Data set [3] has as its system HeLaS₃ cells. The data set is described as follows: Growth inhibition test on HeLaS₃ cells (Neutral Red staining). It is filed as cell-based. Conditions: Homo sapiens, HeLa, 72 hours culture, absorbance 550 nm, read-out: HeLaS₃ IC₅₀. As to the method: HeLaS₃ cells suspended in MEM medium containing 10% fetal calf serum and 2 mM glutamine (hereinafter referred to as medium A) to a concentration of 3 × 10⁴ cells/ml were put into wells of a 96-well microtiter plate in an amount of 0.1 ml per well.
After culturing at 37°C overnight in a CO₂-incubator, 0.05 ml of a test sample appropriately diluted with medium A was added to each well.
The cells were further cultured at 37°C for 72 hours in the CO₂-incubator and the culture supernatant was removed. The residue was washed once with phosphate buffered physiological saline (PBS), and 0.1 ml of a medium containing medium A and 0.02% Neutral Red was added to each well, followed by culturing at 37°C for one hour in the CO₂-incubator to stain the cells. After removal of the culture supernatant, the cells were washed once with physiological saline, and the dye was extracted with 0.001N HCl/30% ethanol. Absorbance of the extract at 550 nm was measured with a microplate reader. By comparing the absorbance of the extract of intact cells with those of the cells treated with the test compound at known concentrations, the concentration of the test compound which inhibited growth of the cells by 50% (IC₅₀) was determined.

The test system of data set [4] is Staphylococcus aureus 6538-P. The data set is described as follows: Antibacterial activity, agar dilution method. It counts as cell-based. To be noted: pH 7.0. On the procedure: (§1) Minimum inhibitory concentrations (MIC) of Compound (I) against various bacteria were determined by the agar dilution method (pH 7.0).
Data set [5] has as its system Bacillus subtilis ATCC6633. In words: Antibacterial activity, agar dilution method. It counts as cell-based. Conditions: pH 7.0. On the procedure:
as §1
(In general: In agar dilution, organisms are placed on agar that contains the substance at set levels.)

For data set [6], the system named is Micrococcus luteus ATCC9341. The data set is described as follows: Antibacterial activity, agar dilution method. It is filed as cell-based. Conditions: pH 7.0. On the procedure:
as §1

The subject of data set [7] is Staphylococcus epidermidis S1318. In words: Antibacterial activity, agar dilution method. It is filed as cell-based. Conditions: pH 7.0. As to the method:
as §1

In data set [8] the test system is Staphylococcus aureus 209-P. The data set is described as follows: Antibacterial activity, agar dilution method. It is filed as cell-based. Conditions: pH 7.0. On the procedure:
as §1

pIC50: −log10 of the molar value. Converted amounts (≈) assume the structure as drawn.

Broadly, the MIC is the smallest concentration in the dilution series that meets the test's criterion for growth inhibition. Low values mean greater potency, high ones weaker potency.

For the compound `COC(=O)c1c(C)[nH]c2c(OC(=O)N3CCN(C)CC3)cc3c(c12)C(CBr)CN3C(=O)c1cc2cc(OC)c(OC)c(OC)c2[nH]1` (centres unmarked) [Compound (I)], the “Residual Rate” value in data set [1] (Time 0 hr (defined as 100 %)) was 100%; in data set [1] (Time 3 hr) it was 99%; in data set [1] (Time 6 hr) it was 98%. In addition, the “stability in solution (in words)” value in data set [1] (compared with Compound (III), results of Table 3) is reported as “improved stability in solution”. The “Sarcoma 180 T/C” value in data set [2] is 0.095. Further, the pIC50 in data set [3] is 7.51. For the same compound, the MIC in data set [4] was 6.25 µg/mL (≈ 8.95 µM); in data set [5], 6.25 µg/mL (≈ 8.95 µM); in data set [6] it was 25 µg/mL (≈ 35.8 µM); in data set [7], 6.25 µg/mL (≈ 8.95 µM); in data set [8], 6.25 µg/mL (≈ 8.95 µM).

The values are drawn from patent EP0537575A1, “Hydrobromide of DC-89 derivative having antitumor activity” (KYOWA HAKKO KOGYO CO., LTD., priority 1991, dated 1993).
